Biological target: T1, NS3 (West Nile virus, UniProt K4FQI5)
T1 sequence (K4FQI5 whole entry): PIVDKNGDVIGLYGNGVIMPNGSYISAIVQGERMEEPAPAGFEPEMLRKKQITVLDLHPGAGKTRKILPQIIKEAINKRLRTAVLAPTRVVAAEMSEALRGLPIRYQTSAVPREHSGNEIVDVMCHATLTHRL
Test: Functional biochemical assay to identify treatments for viral infectious disease that targets West Nile NS2B-NS3 protease. Utilizing a direct enzyme activity measurement method, reading the fluorescence intensity is used to characterize the relative potency of inhibitors as IC50.
Design: species or system NY-99

Row | Structure (SMILES) | IC50
1 | COc1cc(Br)cc(C(=O)Nc2ccc3c(c2)CNC3)c1 | 92.7 µM
2 | O=C(NC[C@H]1CCCO1)[C@H](Nc1ccc2c(c1)CNC2)c1cc(Cl)cc2[nH]ncc12 | 1.16 µM
3 | Cc1cc(C(=O)Nc2ccc3c(c2)CNC3)c2cn[nH]c2c1 | 9.64 µM
4 | O=C(Nc1ccc2c(c1)CNC2)c1cc(Cl)cc(-n2cccc2)c1 | 12.9 µM
5 | N#Cc1cc(Cl)cc(C(=O)Nc2ccc3c(c2)CNC3)c1 | 54.9 µM
6 | Cc1ccc(S(=O)(=O)CNC(=O)[C@H](Nc2ccc3c(c2)CNC3)c2cc(Cl)cc3[nH]ncc23)cc1 | 11.7 µM
7 | O=C(Nc1ccc2c(c1)CNC2)c1cc(Cl)cc(C2CC2)c1 | 25.5 µM
8 | Nc1cc(Cl)cc(C(=O)Nc2ccc3c(c2)CNC3)c1N | 33.3 µM
9 | N#CCCNC(=O)[C@H](Nc1ccc2c(c1)CNC2)c1cc(Cl)cc(C2CC2)c1 | 0.43 µM
10 | O=C(Nc1ccc2c(c1)CNC2)c1cc(Br)cc2[nH]c([C@H]3CCOC3)nc12 | 92.3 µM
11 | O=C(Nc1ccc2c(c1)CNC2)c1cc(Cl)ccc1SC1CCCC1 | > 99.5 µM
12 | O=C(Nc1ccc2c(c1)CNCCC2)c1cc(Cl)cc2[nH]ncc12 | 3.25 µM
13 | O=C(Nc1ccc2c(c1)CNC2)c1cc(F)cc2[nH]nnc12 | 5.06 µM
14 | N#Cc1cc(Cl)cc([C@H](C#N)Nc2ccc3c(c2)CNC3)c1 | 98.5 µM
15 | O=C(Nc1ccc2c(c1)CNC2)c1cc(Br)cc2[nH]c(C3CCOCC3)nc12 | > 99.5 µM
16 | O=C(Nc1ccc2c(c1)CNC2)c1cccc2[nH]ncc12 | 4.33 µM
17 | CCc1cc(Cl)cc(C(=O)Nc2ccc3c(c2)CNC3)c1 | > 99.5 µM
18 | Cc1ccc2cc(Cl)cc(C(=O)Nc3ccc4c(c3)CNC4)c2n1 | > 99.5 µM
19 | CNC(=O)[C@H](Nc1ccc2c(c1)CNC2)c1cc(Cl)cc2[nH]ncc12 | 0.677 µM
20 | O=C(Nc1cnc2c(c1)CNCC2)c1cc(Cl)cc2[nH]ncc12 | 26.5 µM
21 | O=C(Nc1ccc2c(c1)CCNCC2)c1cc(Cl)cc2[nH]ncc12 | 48.5 µM
22 | O=C(Nc1ccc2c(c1)CNCCO2)c1cc(Cl)cc2[nH]ncc12 | 19.6 µM
23 | O=C(Nc1ccc2c(c1)CNC2)c1cc(Br)cc2[nH]ncc12 | 12.9 µM
24 | O=C(NC[C@H]1CCCO1)[C@H](Nc1ccc2c(c1)CNC2)c1cc(Cl)cc(C2CC2)c1 | 0.498 µM
25 | COC(=O)CNC(=O)[C@H](Nc1ccc2c(c1)CNC2)c1cc(Cl)cc(C2CC2)c1 | 0.897 µM
26 | CC(=O)Nc1cc(Br)cc(C(=O)Nc2ccc3c(c2)CNC3)c1 | 31.5 µM

Row | Structure (SMILES) | IC50
27 | CCc1nc2c(C(=O)Nc3ccc4c(c3)CNC4)cc(Br)cc2[nH]1 | 55.9 µM
28 | O=C(NCC1CCOCC1)[C@H](Nc1ccc2c(c1)CNC2)c1cc(Cl)cc2[nH]ncc12 | 2.28 µM
29 | O=C(NCc1ccc(F)cc1)[C@H](Nc1ccc2c(c1)CNC2)c1cc(Cl)cc2[nH]ncc12 | 1.08 µM
30 | CC(C)c1nc2c(C(=O)Nc3ccc4c(c3)CNC4)cc(Br)cc2[nH]1 | > 99.5 µM
31 | O=C(Nc1ccc2c(c1)CNC2)c1cc(Cl)cc2[nH]c(-c3ccnn3C3CC3)nc12 | 18.6 µM
32 | Nc1noc2cccc(C(=O)Nc3ccc4c(c3)CNC4)c12 | 76.8 µM
33 | O=C(Nc1ccc2c(c1)CNC2)c1cc(Cl)cc2[nH]c(-c3nc4c(s3)CCC4)nc12 | 40.3 µM
34 | O=C(NCCCn1ccnc1)[C@H](Nc1ccc2c(c1)CNC2)c1cc(Cl)cc(C2CC2)c1 | 0.839 µM
35 | O=C(Nc1ccc2c(c1)CNC2)c1cc(Cl)ccc1-n1cncn1 | 42.7 µM
36 | O=C(Nc1ccc2c(c1)CNC2)c1cc(Cl)cc2[nH]c(-c3ccc(F)cc3O)nc12 | > 99.5 µM
37 | O=C(Nc1ccc2c(c1)CNC2)c1cc(F)cc2[nH]cnc12 | 13.5 µM
38 | O=C(Nc1ccc2c(c1)CNC2)c1cccc2ccncc12 | 11.4 µM
39 | Cn1cc2c(C(=O)Nc3ccc4c(c3)CNC4)cc(F)cc2n1 | 7.38 µM
40 | O=C(Nc1ccc2c(c1)CNC2)c1cc(Cl)cc2[nH]c(COc3ccccn3)nc12 | > 99.5 µM
41 | O=C(Nc1ccc2c(c1)CNC2)c1cc(Br)cc2[nH]c([C@H]3CCCO3)nc12 | > 99.5 µM
42 | CCc1ccc(-c2nc3c(C(=O)Nc4ccc5c(c4)CNC5)cc(Cl)cc3[nH]2)cc1 | 32 µM
43 | CC(C)(C)c1nc2c(C(=O)Nc3ccc4c(c3)CNC4)cc(Br)cc2[nH]1 | > 99.5 µM
44 | CCSc1ccc(Cl)cc1C(=O)Nc1ccc2c(c1)CNC2 | 81.6 µM
45 | CNC(=O)c1cccc(C(=O)Nc2ccc3c(c2)CNC3)c1 | 36.8 µM
46 | CCOCC1(c2nc3c(C(=O)Nc4ccc5c(c4)CNC5)cc(Cl)cc3[nH]2)CC1 | > 99.5 µM
47 | O=C(Nc1ccc2c(c1)CNC2)c1cc(Cl)cc2[nH]c(-c3cnccc3O)nc12 | > 99.5 µM
48 | O=C(Nc1ccc2c(c1)CNC2)c1cccc2[nH]ccc12 | 8.63 µM
49 | CCOC(=O)c1ncoc1CNC(=O)[C@H](Nc1ccc2c(c1)CNC2)c1cc(Cl)cc(C2CC2)c1 | 3.04 µM
50 | CC1=C(c2cc(NC(=O)c3cc(Cl)cc4[nH]ncc34)cc3c2CNC3)CCC1=O | 12.9 µM
51 | O=C(Nc1ccc2c(c1)CNC2)c1cccc2sccc12 | 13.8 µM
52 | O=C(Nc1ccc2c(c1)CNC2)c1cncc2[nH]ncc12 | 20.8 µM

Row | Structure (SMILES) | IC50
53 | O=C(Nc1ccc2c(c1)CNC2)c1cc(Cl)cc2[nH]c(-c3cc(C4CC4)[nH]n3)nc12 | 10.1 µM
54 | O=C(Nc1ccc2c(c1)CNC2)c1cc(Cl)cc2[nH]c(CCc3cccnc3)nc12 | 87.1 µM
55 | CNC(=O)[C@H](Nc1ccc2c(c1)CNC2)c1cc(Cl)cc2c1OCC2 | 3.8 µM
56 | O=C(Nc1ccc2c(c1)CNC2)c1cc(Cl)cc2[nH]c(-c3ncnn3C3CC3)nc12 | 87.2 µM
57 | CC(C)CNC(=O)[C@H](Nc1ccc2c(c1)CNC2)c1cc(Cl)cc2[nH]ncc12 | 0.643 µM
58 | O=C(Nc1ccc2c(c1)CNC2)c1cc(F)cc2c1CCNC2 | 1.36 µM
59 | COCc1cc(Cl)cc(C(=O)Nc2ccc3c(c2)CNC3)c1 | 73.2 µM
60 | CCc1cnccc1-c1nc2c(C(=O)Nc3ccc4c(c3)CNC4)cc(Cl)cc2[nH]1 | > 99.5 µM
61 | O=C(Nc1ccc2c(c1)CNC2)c1cc(Br)cc2c1nc1n2CCCC1 | 31.4 µM
62 | CN(C)C(=O)CCCc1nc2c(C(=O)Nc3ccc4c(c3)CNC4)cc(Cl)cc2[nH]1 | > 99.5 µM
63 | O=C(Nc1ccc2c(c1)CNC2)c1cc(Cl)cc(N2CCCC2=O)c1 | 24.8 µM
64 | COc1cc(Cl)cc(C(=O)Nc2ccc3c(c2)CNC3)c1 | 40.7 µM
65 | CCCNC(=O)[C@H](Nc1ccc2c(c1)CNC2)c1cc(Cl)cc2[nH]ncc12 | 0.356 µM
66 | O=C(NCc1cccnc1)[C@H](Nc1ccc2c(c1)CNC2)c1cc(Cl)cc2[nH]ncc12 | 1.37 µM
67 | O=C1Cc2c(cccc2C(=O)Nc2ccc3c(c2)CNCCC3)N1 | 2.15 µM
68 | O=C(Nc1ccc2c(c1)CNC2)c1cc(Cl)cc2[nH]c(C3(n4ccnn4)CC3)nc12 | > 99.5 µM
69 | N#Cc1cccc(-c2nc3c(C(=O)Nc4ccc5c(c4)CNC5)cc(Cl)cc3[nH]2)c1 | 7.57 µM
70 | O=C(Nc1ccc2c(c1)CNC2)c1cccc2cn[nH]c12 | 9.75 µM
71 | C#Cc1cc(Cl)cc(C(=O)Nc2ccc3c(c2)CNC3)c1 | 58.6 µM
72 | O=C(Nc1ccc2c(c1)CNC2)c1cc(F)cc(-c2cnc(C3CC3)s2)c1 | 1.99 µM
73 | O=C(Nc1ccc2c(c1)CNC2)c1cc(Cl)cc2ccccc12 | 14.7 µM
74 | O=C(Nc1ccc2c(c1)CNC2)c1cc(Cl)cc2c1NCCC2 | > 99.5 µM
75 | O=C(Nc1ccc2c(c1)CNC2)c1cc(Cl)cc2[nH]c(-c3cnc(C4CC4)o3)nc12 | 22.9 µM
76 | O=C(Nc1ccc2c(c1)CNC2)c1cc(Cl)cc(N2CCCC2)c1 | 42.8 µM
77 | CC(=O)Nc1cccc(C(=O)Nc2ccc3c(c2)CNC3)c1 | 30.6 µM

Source: ChEMBL document CHEMBL5604061, “ASAP - WNV NS2B-NS3 protease fluorescence dose response” (2024)
